Laboratory results as given in US11117947B2, “Double-acylated GLP-1 derivatives” (Novo Nordisk A/S, priority 2011, dated 2021).
Numbered stars: 1 amine (or outer) side, 2 acyl side, 3 side chain; on linkers, the order of the positions; unused ones are H or OH. Square brackets hold non-standard residues; d marks the D form. Side chains are listed from the residue outwards. Peptide text beside a SMILES is read from it. * marks the point of attachment. Decanoyl(10-(4-HOOC-PhO)) = O=C(O)c1ccc(OCCCCCCCCCC(=O)*)cc1; γGlu = O=C(O)[C@H](CCC(=O)[*:2])N[*:1]; C14 diacid = O=C(O)CCCCCCCCCCCCC(=O)*; AEEA = NCCOCCOCC(=O)O; Aib = CC(C)(N)C(=O)O

Assays:
[1] = molecular target: T1, human GLP-1 receptor (Homo sapiens, UniProt P43220); experiment: GLP-1 receptor binding: displacement of 125I-GLP-1 (SPA) at low and high albumin; settings: 2.0% HSA vs 0.001% HSA
T1 construct: expressed in transfected cells; membranes
Summary of the method: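 Membranes from hamster cells stably transfected with the receptor, with WGA SPA beads and 0.06 nM [^125I]-GLP-1(7-36)NH2, incubated 120 min at 30 °C with shaking.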

[2] = Pharmacokinetics in rat: half-life after i.v. administration; type: in vivo; settings: plasma, iv, 6 nmol/kg, male Sprague Dawley rats, approximately 4 rats per group, read-out: t½/h (half-life in rat) (converted)
Procedure: In vivo pharmacokinetic studies in rats were performed with the GLP-1 derivatives of Examples 2, 10, 17-18, and 31, as described in the following. Semaglutide was included for comparison.
Male Sprague Dawley rats of same age with a body weight of approximately 400 g were obtained from Taconic (Denmark) and assigned to the treatments by simple randomisation on body weight, approximately 4 rats per group, so that all animals in each group were of similar body weight.
The GLP-1 derivatives (approximately 6 nmol/ml) were dissolved in 50 mM sodium phosphate, 145 mM sodium chloride, 0.05% tween 80, pH 7.4. Intravenous injections (1.0 ml/kg) of the compounds were given through a catheter implanted in the right jugular vein. Blood was sampled from vena sublingualis for 5 days post dosing. Blood samples (200 μl) were collected in EDTA buffer (8 mM) and then centrifuged at 4° C. and 10000 G for 5 minutes. Plasma samples were kept at −20° C. until analyzed for plasma concentration of the respective GLP-1 compound.
The plasma concentrations of the GLP-1 compounds were determined using a Luminescence Oxygen Channeling Immunoasssay (LOCI), generally as described for the determination of insulin by Poulsen and Jensen in Journal of Biomolecular Screening 2007, vol. 12, p. 240-247. The donor beads were coated with streptavidin, while acceptor beads were conjugated with a monoclonal antibody recognising a mid-/C-terminal epitope of the peptide. Another monoclonal antibody, specific for the N-terminus, was biotinylated. The three reactants were combined with the analyte and formed a two-sited immuno-complex. Illumination of the complex released singlet oxygen atoms from the donor beads, which were channeled into the acceptor beads and triggered chemiluminescence which was measured in an Envision plate reader. The amount of light was proportional to the concentration of the compound.
Plasma concentration-time profiles were analyzed using Phoenix WinNonLin ver. 6.2, Pharsight Inc., Mountain View, Calif., USA), and the half-life (T1/2) calculated using individual plasma concentration-time profiles from each animal.

[3] = molecular target: T1, human GLP-1 receptor; experiment: In vitro potency: stimulation of cAMP formation (AlphaScreen cAMP Assay) in membranes expressing the human GLP-1 receptor; type: biochemical; settings: membranes from BHK467-12A (tk-ts13) expressing the human GLP-1 receptor
Procedure: Purified plasma membranes from a stable transfected cell line, BHK467-12A (tk-ts13), expressing the human GLP-1 receptor were stimulated with the GLP-1 analogue or derivative in question, and the potency of cAMP production was measured using the AlphaScreen™ cAMP Assay Kit from Perkin Elmer Life Sciences. The basic principle of the AlphaScreen Assay is a competition between endogenous cAMP and exogenously added biotin-cAMP. The capture of cAMP is achieved by using a specific antibody conjugated to acceptor beads.
A stable transfected cell line and a high expressing clone were selected for screening. The cells were grown at 5% CO2 in DMEM, 5% FCS, 1% Pen/Strep (Penicillin/Streptomycin) and 0.5 mg/ml of the selection marker G418.
Cells at approximately 80% confluence were washed 2× with PBS and harvested with Versene (aqueous solution of the tetrasodium salt of ethylenediaminetetraacetic acid), centrifuged 5 min at 1000 rpm and the supernatant removed. The additional steps were all performed on ice. The cell pellet was homogenised by the Ultrathurax for 20-30 s in 10 ml of Buffer 1 (20 mM Na-HEPES, 10 mM EDTA, pH=7.4), centrifuged 15 min at 20,000 rpm and the pellet resuspended in 10 ml of Buffer 2 (20 mM Na-HEPES, 0.1 mM EDTA, pH=7.4). The suspension was homogenised for 20-30 s and centrifuged 15 min at 20,000 rpm. Suspension in Buffer 2, homogenisation and centrifugation was repeated once and the membranes were resuspended in Buffer 2. The protein concentration was determined and the membranes stored at −80° C. until use.
The final volume per well was 50 μl.
AlphaScreen cAMP Assay Kit from Perkin Elmer Life Sciences (cat. No: 6760625M); containing Anti-cAMP Acceptor beads (10 U/μl), Streptavidin Donor beads (10 U/μl) and Biotinylated-cAMP (133 U/μl).
cAMP standard (dilution factor in assay=5): cAMP Solution: 5 μL of a 5 mM cAMP-stock+495 μL AlphaScreen Buffer.
Membranes were prepared from hGLP-1/BHK 467-12A cells with a concentration of 6 μg/well corresponding to 0.6 mg/ml (the amount of membranes used pr. well may vary)
“No membranes”: Acceptor Beads (15 μg/ml final) in AlphaScreen buffer
“6 μg/well membranes”: membranes+Acceptor Beads (15 μg/ml final) in AlphaScreen buffer
An aliquot (10 μl) of “No membranes” was added to the cAMP standard (per well in duplicate wells) and the positive and negative controls
An aliquot (10 μl) of “6 μg/well membranes” was added to GLP-1 and analogues (per well in duplicate or triplicate wells)
Pos. Control: 10 μl “no membranes”+10 μl AlphaScreen Buffer
Neg. Control: 10 μl “no membranes”+10 μl cAMP Stock Solution (50 μM)
1. Make the AlphaScreen Buffer.
2. Dissolve and dilute the GLP-1/Analogues/cAMP standard in AlphaScreen Buffer.
4. Add the cAMP/GLP-1/Analogues to the plate: 10 μl per well.
5. Prepare membrane/Acceptor Beads solution and add this to the plates: 10 μl per well.
6. Add the Donor Beads: 30 μl per well.

[4] = Estimate of oral bioavailability: gut injection in rat (caprate), exposure in plasma; type: in vivo; settings: injection in jejunum, 1000 uM in 55 mg/ml sodium caprate, plasma concentration (pM) at 30 min divided by dosing solution concentration (μM), mean n=4
Summary of the method: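 Male Sprague Dawley rats (~240 g, n=4) received 100 μl of 1000 uM derivative in 55 mg/ml sodium caprate by catheter into proximal or mid jejunum. Tail-vein EDTA plasma was sampled up to 240 min. Peptide was quantified by two-antibody bead chemiluminescence immunoassay, giving mean concentration-time profiles (pmol/l).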

T1 sequence (P43220 24-463): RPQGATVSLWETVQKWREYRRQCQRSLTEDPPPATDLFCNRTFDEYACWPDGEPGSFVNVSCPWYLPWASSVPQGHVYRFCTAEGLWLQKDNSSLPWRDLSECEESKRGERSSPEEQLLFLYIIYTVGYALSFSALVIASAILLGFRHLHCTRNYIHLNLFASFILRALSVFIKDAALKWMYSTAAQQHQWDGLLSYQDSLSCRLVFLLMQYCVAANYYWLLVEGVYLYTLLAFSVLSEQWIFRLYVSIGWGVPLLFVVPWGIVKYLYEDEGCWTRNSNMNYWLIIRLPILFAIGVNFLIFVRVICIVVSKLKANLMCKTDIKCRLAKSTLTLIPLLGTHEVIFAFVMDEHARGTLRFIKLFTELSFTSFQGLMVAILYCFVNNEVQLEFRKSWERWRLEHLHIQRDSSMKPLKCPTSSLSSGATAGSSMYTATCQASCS

In the case of `CC[C@H](C)[C@H](NC(=O)[C@H](Cc1ccccc1)NC(=O)[C@H](CCCCNC(=O)COCCOCCNC(=O)COCCOCCNC(=O)CC[C@H](NC(=O)CCCCCCCCCCCCC(=O)O)C(=O)O)NC(=O)[C@H](CCCNC(=N)N)NC(=O)[C@H](C)NC(=O)[C@H](C)NC(=O)[C@H](CCC(N)=O)NC(=O)[C@H](CCC(=O)O)NC(=O)[C@H](CCC(=O)O)NC(=O)[C@H](CC(C)C)NC(=O)[C@H](Cc1ccc(O)cc1)NC(=O)[C@H](CO)NC(=O)[C@H](CO)NC(=O)[C@@H](NC(=O)[C@H](CC(=O)O)NC(=O)[C@H](CO)NC(=O)[C@@H](NC(=O)[C@H](CCCCNC(=O)COCCOCCNC(=O)COCCOCCNC(=O)CC[C@H](NC(=O)CCCCCCCCCCCCC(=O)O)C(=O)O)NC(=O)[C@@H](NC(=O)CNC(=O)[C@H](CCC(=O)O)NC(=O)C(C)(C)NC(=O)[C@@H](N)Cc1c[nH]cn1)[C@@H](C)O)[C@@H](C)O)C(C)C)C(=O)N[C@@H](C)C(=O)N[C@@H](Cc1c[nH]cn1)C(=O)N[C@@H](CC(C)C)C(=O)N[C@H](C(=O)N[C@@H](CCC(N)=O)C(=O)NCC(=O)N[C@@H](CCCNC(=N)N)C(=O)NCC(=O)O)C(C)C` [Example 18, N^ε12-[2-[2-[2-[[2-[2-[2-[[(4S)-4-carboxy-4-(13-carboxytridecanoylamino)butanoyl]amino]ethoxy]ethoxy]acetyl]amino]ethoxy]ethoxy]acetyl], N^ε27-[2-[2-[2-[[2-[2-[2-[[(4S)-4-carboxy-4-(13-carboxytridecanoylamino)butanoyl]amino]ethoxy]ethoxy]acetyl]amino]ethoxy]ethoxy]acetyl]-[Aib^8,Lys^12,Glu^22,Arg^26,Lys^27,His^31,Gln^34]-GLP-1-(7-37)-peptide] (H-H[Aib]EGTK([AEEA-AEEA-γGlu-C14 diacid])TSDVSSYLEEQAARK([AEEA-AEEA-γGlu-C14 diacid])FIAHLVQGRG-OH), the “Ratio [(IC50/nM) high HSA]/[(IC50/nM) low HSA]” value [1] is reported as 2.1 and the half-life [2] is reported as 10 h.
In the case of `CC[C@H](C)[C@H](NC(=O)[C@H](Cc1ccccc1)NC(=O)[C@H](CCCCNC(=O)COCCOCCNC(=O)COCCOCCNC(=O)CC[C@H](NC(=O)CCCCCCCCCCCCC(=O)O)C(=O)O)NC(=O)[C@H](CCCNC(=N)N)NC(=O)[C@H](C)NC(=O)[C@H](C)NC(=O)[C@H](CCC(N)=O)NC(=O)[C@H](CCCCNC(=O)COCCOCCNC(=O)COCCOCCNC(=O)CC[C@H](NC(=O)CCCCCCCCCCCCC(=O)O)C(=O)O)NC(=O)[C@H](CCC(=O)O)NC(=O)[C@H](CC(C)C)NC(=O)[C@H](Cc1ccc(O)cc1)NC(=O)[C@H](CO)NC(=O)[C@H](CO)NC(=O)[C@@H](NC(=O)[C@H](CC(=O)O)NC(=O)[C@H](CO)NC(=O)[C@@H](NC(=O)[C@H](Cc1ccccc1)NC(=O)[C@@H](NC(=O)CNC(=O)[C@H](CCC(=O)O)NC(=O)C(C)(C)NC(=O)[C@@H](N)Cc1c[nH]cn1)[C@@H](C)O)[C@@H](C)O)C(C)C)C(=O)N[C@@H](C)C(=O)N[C@@H](Cc1c[nH]cn1)C(=O)N[C@@H](CC(C)C)C(=O)N[C@H](C(=O)NCC(=O)O)C(C)C` [Example 19, N^ε22-[2-[2-[2-[[2-[2-[2-[[(4S)-4-carboxy-4-(13-carboxytridecanoylamino)butanoyl]amino]ethoxy]ethoxy]acetyl]amino]ethoxy]ethoxy]acetyl], N^ε27-[2-[2-[2-[[2-[2-[2-[[(4S)-4-carboxy-4-(13-carboxytridecanoylamino)butanoyl]amino]ethoxy]ethoxy]acetyl]amino]ethoxy]ethoxy]acetyl]-[Aib^8,Lys^22,Arg^26,Lys^27,His^31,Gly^34]-GLP-1-(7-34)-peptide] (H-H[Aib]EGTFTSDVSSYLEK([AEEA-AEEA-γGlu-C14 diacid])QAARK([AEEA-AEEA-γGlu-C14 diacid])FIAHLVG-OH), the EC50 [3] is reported as 0.052 nM, the “Ratio [(IC50/nM) high HSA]/[(IC50/nM) low HSA]” value [1] is reported as 60 and the “Dose-corrected exposure at 30 min” value [4] is reported as 61.
With `CC[C@H](C)[C@H](NC(=O)[C@H](Cc1ccccc1)NC(=O)[C@H](CCCCNC(=O)COCCOCCNC(=O)COCCOCCNC(=O)CC[C@H](NC(=O)CCCCCCCCCOc1ccc(C(=O)O)cc1)C(=O)O)NC(=O)[C@H](Cc1c[nH]cn1)NC(=O)[C@H](C)NC(=O)[C@H](C)NC(=O)[C@H](CCC(N)=O)NC(=O)[C@H](CCC(=O)O)NC(=O)[C@H](CCC(=O)O)NC(=O)[C@H](CC(C)C)NC(=O)[C@H](Cc1ccc(O)cc1)NC(=O)[C@H](CO)NC(=O)[C@H](CO)NC(=O)[C@@H](NC(=O)[C@H](CC(=O)O)NC(=O)[C@H](CO)NC(=O)[C@@H](NC(=O)[C@H](Cc1ccccc1)NC(=O)[C@@H](NC(=O)CNC(=O)[C@H](CCC(=O)O)NC(=O)[C@H](C)NC(=O)[C@@H](N)Cc1c[nH]cn1)[C@@H](C)O)[C@@H](C)O)C(C)C)C(=O)N[C@@H](CCC(=O)O)C(=O)N[C@@H](Cc1c[nH]c2ccccc12)C(=O)N[C@@H](CC(C)C)C(=O)N[C@H](C(=O)N[C@@H](CCCNC(=N)N)C(=O)NCC(=O)N[C@@H](CCCCNC(=O)COCCOCCNC(=O)COCCOCCNC(=O)CC[C@H](NC(=O)CCCCCCCCCOc1ccc(C(=O)O)cc1)C(=O)O)C(=O)NCC(=O)N[C@@H](CCC(=O)O)C(=O)O)C(C)C` [Example 21, N^ε27-[2-[2-[2-[[2-[2-[2-[[(4S)-4-carboxy-4-[10-(4-carboxyphenoxy)decanoylamino]butanoyl]amino]ethoxy]ethoxy]acetyl]amino]ethoxy]ethoxy]acetyl], N^ε36-[2-[2-[2-[[2-[2-[2-[[(4S)-4-carboxy-4-[10-(4-carboxyphenoxy)decanoylamino]butanoyl]amino]ethoxy]ethoxy]acetyl]amino]ethoxy]ethoxy]acetyl]-[Glu^22,His^26,Lys^27,Glu^30,Arg^34,Lys^36]-GLP-1-(7-37)-peptidyl-Glu] (H-HAEGTFTSDVSSYLEEQAAHK([AEEA-AEEA-γGlu-Decanoyl(10-(4-HOOC-PhO))])FIEWLVRGK([AEEA-AEEA-γGlu-Decanoyl(10-(4-HOOC-PhO))])GE-OH; N-terminus and C-terminus assumed) the EC50 [3] was 0.052 nM and the “Dose-corrected exposure at 30 min” value [4] was 140.
